Experimental data as given in patent US11642336B2, “5-HT2A agonists for use in treatment of depression” (priority 2019, dated 2023).
Where two headings read alike, the source gives them in different places.

Experiments:
[1] = molecular target: D1 (Homo sapiens (Human), UniProt P21728); test: radioligand competition binding assay (Psychiatric Drug Screening Program)
[2] = molecular target: 5-HT1D (Homo sapiens (Human), UniProt P28221); test: as above
[3] = tested on: 5-HT2C; details: cited from earlier work
[4] = molecular target: D4 (Homo sapiens (Human), UniProt P21917); test: radioligand competition binding assay (Psychiatric Drug Screening Program)
[5] = molecular target: 5-HT6 (Homo sapiens (Human), UniProt P50406); test: as above
Sequence of 5-HT6 (P50406 whole entry, looked up, species assumed): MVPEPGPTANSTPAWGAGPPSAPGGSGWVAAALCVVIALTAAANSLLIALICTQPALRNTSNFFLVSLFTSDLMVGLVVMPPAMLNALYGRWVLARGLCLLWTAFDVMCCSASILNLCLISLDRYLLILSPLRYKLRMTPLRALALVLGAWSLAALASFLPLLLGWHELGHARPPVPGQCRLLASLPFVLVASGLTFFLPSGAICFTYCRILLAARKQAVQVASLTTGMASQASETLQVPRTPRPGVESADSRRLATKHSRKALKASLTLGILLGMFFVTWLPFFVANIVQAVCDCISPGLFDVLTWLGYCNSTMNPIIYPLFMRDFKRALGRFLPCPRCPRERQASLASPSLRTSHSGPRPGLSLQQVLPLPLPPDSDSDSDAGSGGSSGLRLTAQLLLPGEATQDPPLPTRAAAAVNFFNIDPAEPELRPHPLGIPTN

[6] = tested on: 5-HT2A; details: cited from earlier work
[7] = molecular target: D3 (Homo sapiens (Human), UniProt P35462); test: radioligand competition binding assay (Psychiatric Drug Screening Program)
[8] = molecular target: 5-HT7 (Homo sapiens (Human), UniProt P34969); test: as above
Sequence of 5-HT7 (P34969 whole entry, looked up, species assumed): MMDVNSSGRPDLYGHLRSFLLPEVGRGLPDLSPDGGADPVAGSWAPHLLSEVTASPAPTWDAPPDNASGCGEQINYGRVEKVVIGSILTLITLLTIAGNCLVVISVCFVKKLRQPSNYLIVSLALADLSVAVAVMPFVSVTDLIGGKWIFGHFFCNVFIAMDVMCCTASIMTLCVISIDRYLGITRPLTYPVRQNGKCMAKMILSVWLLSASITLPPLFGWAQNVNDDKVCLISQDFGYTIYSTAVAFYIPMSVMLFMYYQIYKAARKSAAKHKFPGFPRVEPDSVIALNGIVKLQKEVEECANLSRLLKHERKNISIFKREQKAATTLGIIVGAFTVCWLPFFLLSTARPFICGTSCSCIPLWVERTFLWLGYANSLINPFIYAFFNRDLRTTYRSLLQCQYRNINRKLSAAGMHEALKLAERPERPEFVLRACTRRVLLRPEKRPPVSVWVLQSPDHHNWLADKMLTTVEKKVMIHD

[9] = molecular target: a2A (Homo sapiens (Human), UniProt P08913); test: as above
Sequence of a2A (P08913 whole entry, looked up): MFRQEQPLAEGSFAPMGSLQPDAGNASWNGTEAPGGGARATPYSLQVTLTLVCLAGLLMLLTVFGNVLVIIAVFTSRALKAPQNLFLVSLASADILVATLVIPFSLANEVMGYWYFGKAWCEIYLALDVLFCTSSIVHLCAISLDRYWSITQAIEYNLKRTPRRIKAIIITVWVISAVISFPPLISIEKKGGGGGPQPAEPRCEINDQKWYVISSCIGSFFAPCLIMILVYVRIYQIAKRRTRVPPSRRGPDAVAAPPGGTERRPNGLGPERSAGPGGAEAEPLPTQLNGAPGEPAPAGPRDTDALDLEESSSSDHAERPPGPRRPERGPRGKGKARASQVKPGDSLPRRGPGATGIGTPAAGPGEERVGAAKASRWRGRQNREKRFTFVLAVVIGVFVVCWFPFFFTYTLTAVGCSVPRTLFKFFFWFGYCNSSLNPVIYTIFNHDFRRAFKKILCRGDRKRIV

[10] = molecular target: 5-HT5A (Homo sapiens (Human), UniProt P47898); test: as above
Sequence of 5-HT5A (P47898 whole entry, looked up, species assumed): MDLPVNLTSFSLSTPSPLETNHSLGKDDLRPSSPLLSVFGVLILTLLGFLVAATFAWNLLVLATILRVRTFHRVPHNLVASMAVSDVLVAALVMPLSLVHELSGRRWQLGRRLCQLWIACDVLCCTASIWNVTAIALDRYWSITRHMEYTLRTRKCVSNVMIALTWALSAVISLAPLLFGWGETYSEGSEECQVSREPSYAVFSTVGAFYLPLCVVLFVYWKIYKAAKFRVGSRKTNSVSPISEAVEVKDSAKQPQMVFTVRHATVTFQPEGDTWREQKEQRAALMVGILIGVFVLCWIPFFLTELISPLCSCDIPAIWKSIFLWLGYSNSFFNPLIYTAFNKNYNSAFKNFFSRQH

[11] = molecular target: T1, 5-HT2B (Homo sapiens (Human), UniProt P41595); details: % of the Rmax of 5-HT; cited from earlier work
[12] = molecular target: a1A (Homo sapiens (Human), UniProt P35348); test: radioligand competition binding assay (Psychiatric Drug Screening Program)
Sequence of a1A (P35348 whole entry, looked up): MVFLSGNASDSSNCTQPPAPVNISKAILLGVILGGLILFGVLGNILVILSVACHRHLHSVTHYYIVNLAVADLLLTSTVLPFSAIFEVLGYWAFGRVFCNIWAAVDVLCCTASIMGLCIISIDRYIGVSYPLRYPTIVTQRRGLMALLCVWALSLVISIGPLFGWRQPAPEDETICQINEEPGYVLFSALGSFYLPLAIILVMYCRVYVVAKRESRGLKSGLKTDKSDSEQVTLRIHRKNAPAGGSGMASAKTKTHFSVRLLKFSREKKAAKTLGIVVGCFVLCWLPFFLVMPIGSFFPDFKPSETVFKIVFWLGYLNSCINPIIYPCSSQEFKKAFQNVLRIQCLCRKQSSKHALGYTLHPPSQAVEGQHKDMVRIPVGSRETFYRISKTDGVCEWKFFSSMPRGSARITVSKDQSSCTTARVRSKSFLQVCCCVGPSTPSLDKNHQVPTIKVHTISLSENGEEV

[13] = molecular target: 5-HT1A (Homo sapiens (Human), UniProt P08908); test: as above
[14] = molecular target: 5-HT1e (Homo sapiens (Human), UniProt P28566); test: as above
Sequence of 5-HT1e (P28566 whole entry, looked up, species assumed): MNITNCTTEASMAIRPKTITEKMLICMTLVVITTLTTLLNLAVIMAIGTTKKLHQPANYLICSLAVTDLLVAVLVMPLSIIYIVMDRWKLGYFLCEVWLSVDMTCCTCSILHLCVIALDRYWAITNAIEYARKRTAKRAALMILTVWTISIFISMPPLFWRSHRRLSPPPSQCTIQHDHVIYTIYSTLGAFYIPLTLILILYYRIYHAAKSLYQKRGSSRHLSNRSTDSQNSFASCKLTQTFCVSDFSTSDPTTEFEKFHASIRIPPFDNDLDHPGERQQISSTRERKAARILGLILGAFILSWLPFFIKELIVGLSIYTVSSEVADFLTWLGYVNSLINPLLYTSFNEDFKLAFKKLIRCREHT

[15] = molecular target: a1B (Homo sapiens (Human), UniProt P35368); test: as above
Sequence of a1B (P35368 whole entry, looked up): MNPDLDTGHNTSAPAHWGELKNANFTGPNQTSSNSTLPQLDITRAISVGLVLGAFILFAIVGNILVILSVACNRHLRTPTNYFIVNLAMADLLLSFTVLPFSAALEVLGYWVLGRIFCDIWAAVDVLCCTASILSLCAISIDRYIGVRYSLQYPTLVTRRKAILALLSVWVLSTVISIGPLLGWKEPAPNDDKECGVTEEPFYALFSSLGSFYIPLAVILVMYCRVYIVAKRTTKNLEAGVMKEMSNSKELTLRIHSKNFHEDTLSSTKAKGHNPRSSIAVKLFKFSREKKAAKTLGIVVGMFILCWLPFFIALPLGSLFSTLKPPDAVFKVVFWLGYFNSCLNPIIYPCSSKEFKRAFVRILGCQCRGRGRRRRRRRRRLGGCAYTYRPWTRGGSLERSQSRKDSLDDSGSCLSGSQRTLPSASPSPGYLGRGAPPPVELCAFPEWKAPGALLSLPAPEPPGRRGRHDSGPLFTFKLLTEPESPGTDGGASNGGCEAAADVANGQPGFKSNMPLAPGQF

[16] = molecular target: D2 (Homo sapiens (Human), UniProt P14416); test: as above
[17] = molecular target: a2C (Homo sapiens (Human), UniProt P18825); test: as above
Sequence of a2C (P18825 whole entry, looked up): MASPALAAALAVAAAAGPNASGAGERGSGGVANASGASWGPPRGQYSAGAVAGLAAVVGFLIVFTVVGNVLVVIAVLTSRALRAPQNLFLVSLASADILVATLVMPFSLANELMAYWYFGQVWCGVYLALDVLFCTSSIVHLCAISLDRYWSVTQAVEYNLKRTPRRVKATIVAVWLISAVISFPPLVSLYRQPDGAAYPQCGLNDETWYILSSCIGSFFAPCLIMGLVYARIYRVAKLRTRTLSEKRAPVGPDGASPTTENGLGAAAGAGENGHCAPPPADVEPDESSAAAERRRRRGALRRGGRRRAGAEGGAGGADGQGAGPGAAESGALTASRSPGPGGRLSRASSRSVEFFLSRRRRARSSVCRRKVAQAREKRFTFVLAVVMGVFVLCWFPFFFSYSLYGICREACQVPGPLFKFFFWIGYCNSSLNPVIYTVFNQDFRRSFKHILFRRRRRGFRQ

[18] = molecular target: 5-HT1B (Homo sapiens (Human), UniProt P28222); test: as above
Sequence of 5-HT1B (P28222 whole entry, looked up, species assumed): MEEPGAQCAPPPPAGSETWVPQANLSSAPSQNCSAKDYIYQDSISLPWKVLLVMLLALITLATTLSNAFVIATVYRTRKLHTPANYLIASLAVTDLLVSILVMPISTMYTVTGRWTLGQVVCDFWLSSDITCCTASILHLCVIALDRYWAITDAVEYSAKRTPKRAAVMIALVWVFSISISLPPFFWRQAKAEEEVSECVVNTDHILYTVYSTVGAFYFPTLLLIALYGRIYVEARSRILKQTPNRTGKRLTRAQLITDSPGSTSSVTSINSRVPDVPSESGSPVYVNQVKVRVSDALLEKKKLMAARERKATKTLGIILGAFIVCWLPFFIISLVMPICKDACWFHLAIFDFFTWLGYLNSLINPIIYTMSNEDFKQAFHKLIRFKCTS

[19] = molecular target: D5 (Homo sapiens (Human), UniProt P21918); test: as above
Sequence of D5 (P21918 whole entry, looked up): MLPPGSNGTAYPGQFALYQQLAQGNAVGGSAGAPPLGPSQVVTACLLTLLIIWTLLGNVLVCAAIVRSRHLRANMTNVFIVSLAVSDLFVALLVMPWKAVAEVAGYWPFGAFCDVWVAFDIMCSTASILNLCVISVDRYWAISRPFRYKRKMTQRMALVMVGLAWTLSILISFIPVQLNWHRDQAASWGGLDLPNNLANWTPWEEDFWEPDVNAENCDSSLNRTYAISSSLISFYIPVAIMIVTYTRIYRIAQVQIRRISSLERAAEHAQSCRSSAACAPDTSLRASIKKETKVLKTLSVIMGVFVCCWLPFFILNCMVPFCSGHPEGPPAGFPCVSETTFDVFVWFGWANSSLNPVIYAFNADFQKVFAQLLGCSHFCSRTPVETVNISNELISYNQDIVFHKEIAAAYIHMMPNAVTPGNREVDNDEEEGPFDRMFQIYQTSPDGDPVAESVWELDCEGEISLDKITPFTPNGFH

[20] = molecular target: T2, 5-HT2C (Homo sapiens (Human), UniProt P28335); test: IP assay (Eurofins, IP1 HTRF), HEK293 cells; assay type: cell-based; details: for 5-HT2C Rmax (%): % of Rmax of 5-HT
[21] = molecular target: T3, human 5-HT2A (Homo sapiens (Human), UniProt P28223); test: cell-based; assay type: cell-based; details: for agonist response at 5-HT2A: concentrations up to 100 μM; for EC50: duplicate determinations
[22] = molecular target: T1, 5-HT2B; test: IP assay (Eurofins, IP1 HTRF), HEK293 cells; assay type: cell-based; details: for 5-HT2B Rmax: % of Rmax of 5-HT; for EC50: duplicate determinations;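 as to 5-HT2B EC50 (nM): agonist effect read as cellular IP1 production by HTRF using a europium cryptate anti-IP1 antibody donor and D2-labeled IP1 acceptor, eight compound concentrations in each cell line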;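 as to 5-HT2B Rmax: agonist effect read as cellular IP1 production by HTRF using a europium cryptate anti-IP1 antibody donor and D2-labeled IP1 acceptor, eight compound concentrations in each cell line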;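 as to 5-HT2B agonist activity (n.a./w.a.): agonist effect read as cellular IP1 production by HTRF using a europium cryptate anti-IP1 antibody donor and D2-labeled IP1 acceptor, eight compound concentrations in each cell line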
[23] = tested on: Flinders Sensitive Line (FSL) rats; test: forced swim test, Flinders Sensitive Line (FSL) model; assay type: in vivo; details: one hour after i.p. administration, vs vehicle-treated FSL rats, FIG. 3
Experimental: Male Flinders line rats (Flinders Sensitive Line (FSL) and their control Flinders Resistant Line (FRL); 9-11 weeks of age; 228-336 g) from the colony maintained at (TNU), Aarhus University (originally derived from the colony at the University of North Carolina, USA) were housed in pairs (Cage 1291H Eurostandard Type III H, 425×266×185 mm, Techniplast, Buguggiate, Italy) at 20±2° C. on a 12-h light/dark cycle (lights on at 07:00 am). The animals had ad libitum access to chow pellets and tap water. The animal colony was protected from outside noise, and all experimental procedures were performed in specially equipped rooms within the vivarium. […]
The following groups were included in the experiment: FRL-vehicle (n=10), FSL-vehicle (n=10), FSL-ketamine (15 mg/kg S-ketamine, Pfizer) (n=8), and FSL-compound 8 (1.5 mg/kg) (n=10). […] A camera, located directly above the center of the field, recorded the session and the total distance moved was quantified using EthoVision XT video tracking software (version 11.0.928; Noldus Information Technology, Wageningen, The Netherlands).
The rat was placed in an acrylic plastic cylinder (60 cm in height, 24 cm in diameter) containing 40 cm of water (25±1° C.) for 7 min. A camera, located directly in front of the cylinder, recorded the session. […]

[24] = molecular target: T2, 5-HT2C; test: Ca2+/Fluo-4 assay, stable h5-HT2C-HEK293 cell line; assay type: cell-based; details: for EC50: agonist potency, n = 3-4;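 as to all read-outs here: Agonist-induced intracellular Ca2+ rise read by Fluo-4 fluorescence in HEK293 cells stably expressing the human 5-HT2C receptor, each compound run in duplicate on three or more occasions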
[25] = tested on: 5-HT2A over 5-HT2C; details: cited from earlier work
[26] = molecular target: T3, human 5-HT2A; test: cell-based; assay type: cell-based; details: for 5-HT2A Rmax ± S.E.M: % of the Rmax of 5-HT; for agonist response at 5-HT2A / Selectivity EC50 5-HT2C/EC50 5-HT2A: Ca2+/Fluo-4 assay; for agonist response at 5-HT2A: concentrations up to 50 μM; for Selectivity EC50 5-HT2C/EC50 5-HT2A: bounds are conservative estimates
[27] = tested on: male Sprague Dawley rats treated with ACTH or vehicle; test: forced swim test, adrenocorticotropic hormone (ACTH) model; assay type: in vivo
Experimental: The adrenocorticotropic hormone model (ACTH) model was conducted as previously described.^14 Male Sprague Dawley rats were used (age 7 weeks, N=50) (Taconic Biosciences A/S, Lille Skensved, Denmark). After 1 week habituation, the rats were given either 100 μg ACTH/animal/day s.c. (Adrenocorticotropic Hormone 1-24 (China Peptides, China)) at 10 a.m. for 14 days (n=30) or vehicle (VEH) consisting of 0.9% saline (n=20). At day 14, the rats were subjected to a pre-swim test (15 minutes). […] Preceding the FST, rat baseline mobility was determined in the (OFT). The OFT and the FST were conducted as described above.

[28] = molecular target: T2, 5-HT2C; test: biochemical; assay type: binding
[29] = molecular target: T1, 5-HT2B; test: fluorescence-based Ca2+ imaging assay (Eurofins), stable h5-HT2B cell line
[30] = molecular target: a2B (Homo sapiens (Human), UniProt P18089); test: radioligand competition binding assay (Psychiatric Drug Screening Program)
[31] = molecular target: T1, 5-HT2B; test: as above
[32] = Rmax ± S.D., % of the Rmax of 5-HT
[33] = IP assay, duplicate determinations, read-out: 5-HT2C EC50
[34] = IP assay, up to 100 μM (Table 4)

Sequence of 5-HT1D (P28221 whole entry, looked up, species assumed): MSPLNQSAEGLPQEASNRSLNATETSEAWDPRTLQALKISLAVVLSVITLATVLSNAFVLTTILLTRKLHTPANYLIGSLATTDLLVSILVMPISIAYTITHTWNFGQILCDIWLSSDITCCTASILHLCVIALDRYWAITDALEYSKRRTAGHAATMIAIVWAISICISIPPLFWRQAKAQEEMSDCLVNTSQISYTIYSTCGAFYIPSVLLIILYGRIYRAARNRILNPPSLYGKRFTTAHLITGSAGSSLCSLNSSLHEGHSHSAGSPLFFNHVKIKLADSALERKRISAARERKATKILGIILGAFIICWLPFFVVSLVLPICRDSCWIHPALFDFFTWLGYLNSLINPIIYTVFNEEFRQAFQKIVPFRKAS

CN(C)CCc1c[nH]c2cccc(O)c12 [Psilocin, psilocin]
Ki [1]: 20 nM
Ki [2]: 19 nM
EC50 ([3]; EC50 ± S.D.): 30 ± 18 nM
Rmax (%) 5-HT2C [3, 32]: 51 ± 37%
Ki [4]: > 10 µM
Ki [5]: 72 nM
Ki [7]: 0.1 µM
Ki [8]: 72 nM
Ki [9]: 2000 nM
Ki [10]: 70 nM
Rmax (%) 5-HT2B [11]: 45%
Ki [12]: > 10000 nM
Ki [13]: 63 nM
Ki [14]: 44 nM
Ki [15]: > 10000 nM
Ki [16]: > 10 µM
Ki [17]: 4400 nM
Ki [18]: 305 nM
Ki [19]: > 10 µM

COc1cc(CCNCc2ccccc2O)c(OC)cc1C#N [Compound 25CN-NBOH, 4-(2-((2-hydroxybenzyl)amino)ethyl)-2,5-dimethoxybenzonitrile]
EC50 [20]: 0.027 µM
5-HT2C Rmax (%) ([20]; IP assay): 84%

COc1cc(CC(C)N)c(OC)cc1I (centres unmarked) [DOI, 2,5-Dimethoxy-4-iodoamphetamine, reference compound]
5-HT2A Rmax [21]: 89%
EC50 [20]: 0.0091 µM
5-HT2C Rmax (%) ([20]; IP assay): 89%
5-HT2B Rmax [22]: 79%

CN[C@]1(c2ccccc2Cl)CCCCC1=O [(S)-ketamine]
immobility time in the forced swim test [23]: reduce the immobility time

COc1cc(C2CC[C@@H](c3ccccc3OC)NC2)c(OC)cc1Br (some centres unmarked) [Compound 8a, reference compound]
5-HT2C Rmax ± S.E.M ([24]; % of the Rmax of 5-HT): 82 ± 3%
EC50 ([24]; read-out: 5-HT2C EC50): 2 µM
EC50 ([24]; read-out: 5-HT2C [pEC50 ± S.E.M.] (converted)): 1.95 µM
5-HT2A Rmax ([21]; IP assay, % of Rmax of 5-HT): 94%
agonist response at 5-HT2A ([21]; IP assay): evoked significant agonist responses
EC50 ([21]; IP assay): 2.3 µM
Selectivity EC50 5-HT2C/EC50 5-HT2A ([20]; IP assay): 0.07
5-HT2C Rmax (%) ([20]; IP assay): 80%
EC50 [20, 33]: 0.17 µM
Selectivity EC50 5-HT2C/EC50 5-HT2A ([20]; IP assay, listed as compound 8a): selectivity towards 5-HT2C and 5-HT2B over 5-HT2A
5-HT2B Rmax [22]: 20%
EC50 ([22]; read-out: 5-HT2B EC50): 770 nM
5-HT2A-over-5-HT2C selectivity in terms of binding affinity [25]: 13 fold
5-HT2A Rmax ± S.E.M [26]: 87 ± 4%
agonist response at 5-HT2A [26]: evoked significant agonist responses
Selectivity EC50 5-HT2C/EC50 5-HT2A [26]: 4.1
Selectivity EC50 5-HT2C/EC50 5-HT2A ([26]; listed as compound 8a): only slight selectivity towards 5-HT2A over 5-HT2C
EC50 ([26]; agonist potency, n = 3-4, read-out: 5-HT2A EC50): 0.48 µM

CN(C)CCCN1c2ccccc2CCc2ccccc21 [imipramine]
immobility time in the forced swim test, ACTH-treated rats ([27]; ACTH-treated rats, FIG. 4A): lack of effect
immobility time in the forced swim test, vehicle-treated rats ([27]; vehicle-treated rats, 15 mg/kg i.p., FIG. 4B): significant antidepressant-like effect

COc1cc(C(F)(F)F)c(OC)cc1[C@@H]1CCCNC1.Cl [Compound 8, (S)-3-(2,5-Dimethoxy-4-(trifluoromethyl)phenyl)piperidine hydrochloride]
Ki [28]: 42 nM
Ki ([2]; read-out: Ki (nM) 5-HT1D): 663 nM
EC50 ([24]; read-out: 5-HT2C EC50): > 50 µM
5-HT2A Rmax ([21]; IP assay, % of Rmax of 5-HT): 74%
5-HT2B Rmax ([29]; % of the Rmax of 5-HT): 84%
EC50 ([29]; agonist potency): 0.28 µM
Ki [5]: 623 nM
Ki [8]: 2360 nM
Ki ([9]; read-out: Ki (nM) a2A): 1400 nM
Ki [30]: 820 nM
Ki ([12]; read-out: Ki (nM) a1A): > 10000 nM
Ki [13]: 330 nM
Ki [14]: 762 nM
Ki ([15]; read-out: Ki (nM) a1B): > 10000 nM
Ki [17]: > 10000 nM
5-HT2A Rmax ± S.E.M [26]: 47 ± 3%
Ki [31]: 85 nM

COc1cc(C(F)(F)F)c(OC)cc1CCN [Compound 2C-TFM, 4-trifluoromethyl-2,5-dimethoxyphenethylamine, reference compound]
5-HT2A Rmax ([21]; IP assay, % of Rmax of 5-HT): 78%
EC50 ([21]; IP assay): 0.0071 µM
EC50 [20]: 0.0038 µM
Selectivity EC50 5-HT2C/EC50 5-HT2A ([20]; IP assay): 0.53
5-HT2C Rmax (%) ([20]; IP assay): 100%
EC50 ([22]; 5-HT2B EC50 (nM)): 81 nM
5-HT2B Rmax [22]: 81%

COc1cc([C@H]2CC[C@H](c3ccccc3OC)NC2)c(OC)cc1Br [Compound 8b, reference compound]
5-HT2C agonist activity (n.a./w.a.) ([24]; tested up to 50 μM): w.a. [@ 10-50 μM]
agonist response at 5-HT2A ([21]; IP assay): no agonist response
EC50 ([21]; IP assay): > 100 µM
5-HT2A agonist activity (n.a./w.a.) [21, 34]: n.a. (no agonist activity: the compound did not evoke significant responses at concentrations up to 100 μM)
EC50 [20, 33]: > 100 µM
5-HT2C agonist activity (n.a./w.a.) [20, 34]: w.a.
EC50 ([22]; read-out: 5-HT2B EC50): > 100000 nM
5-HT2B agonist activity (n.a./w.a.) ([22]; up to 100 μM (Table 4)): n.a. (no agonist activity: the compound did not evoke significant responses at concentrations up to 100 μM)
5-HT2A-over-5-HT2C selectivity in terms of binding affinity [25]: 27 fold
agonist response at 5-HT2A [26]: no agonist response
5-HT2A agonist activity (n.a./w.a.) ([26]; tested up to 50 μM): w.a. [@ 10-50 μM]
